One series has as its target T1, human Kv1.3 (Homo sapiens, UniProt P22001).
T1 construct: expressed in transfected cells; host or cells: Jurkat cells
Description: Thallium-sensitive fluorescence assay for the voltage gated ion channel Kv1.3 in Jurkat cells. The format is cell-based. The note with it: 10 μM. Here is the method:
2. Assay for the Voltage Gated Ion Channel Kv1.3
Assays were performed and analyized with a FLIPR^TETRA device as specified above.
Compounds for inhibition of ion channel Kv1.3 were assayed in Jurkat cells recombinantly expressing human Kv1.3. For high throughput screening a thallium-sensitive, fluorescence-based assay was used. […] To identify blockers of this ion channel the cells were incubated with different concentrations of compounds 5 min before increasing the potassium and thallium concentration. The fluorescence signals by increasing potassium were then compared in the absence and presence of compounds. Dose response curves were established by adding different concentrations of compounds and analyzing the signal. As reference Kv1.3 blockers margatoxin and quinidine in Cl-free buffer were used as described in the literature.
The results of the Kv1.3 assay are depicted in Table 51 below.

The nature of series [1]: in vitro. The format is in vitro ADME, human. The note with it: human, plasma.
Series [2] in a line: in vitro. The format is in vitro ADME, mouse. The note with it: mouse, plasma.
Series [3] is described as follows: Metabolic stability assay, human microsomes. The format is in vitro ADME. The note with it: human, microsomes.
Series [4] is described as follows: Metabolic stability assay, CD-1 mouse microsomes. The format is in vitro ADME. The following applies: mouse, microsomes.
The next series has as its target T2, Purinoreceptor P2Y1 (Homo sapiens, UniProt P47900).
T2 construct: host or cells: Ca2+ optimized hematopoietic cell lines (rat)
Description: Ca2+ assay (FLIPR) for the GPCR purinoreceptor P2Y1, agonist and antagonist mode. The format is cell-based. The following applies: P2Y1 receptor. Here is the method:
Biological and Pharmacological Methods 1. Ca^2+ Assays for the GPCRs Motilin Receptor, Prostaglandin F (FP) Receptor, 5-hydroxytryptamine 2B (5-HT2B) Receptor, and Purinoreceptor P2Y1
Assays were performed using on a FLIPR^TETRA fluorometric imaging plate reader (Molecular Devices) with ScreenWorks Version 2 (Molecular Devices) as device operating and data analysis software.
Dose dependent agonist and antagonist activities were determined. Percentage activation and percentage inhibition values were determined.
Percentage activation was determined upon initial addition of the sample compounds followed by 10 minutes incubation at 25° C. Following compound incubation, reference agonists were added at EC80 to determine percentage inhibition.
Reference agonists were purchased from reputable commercial vendors and prepared according to each ligand's specifications. All handling of ligands were done to ensure proper control throughout the experiments.
Example compounds were weighed on a Microbalance (Mettler MX5) and dissolved in 100% DMSO to a final concentration of 2.5 mM and subsequently diluted into the assay buffer.
The Assay buffer was a supplemented HBSS (Hank's Balanced Salt Solution). HBSS was supplemented with 20 mM HEPES (4-(2-hydroxyethyl)-piperazin-1-ethansulfonic acid) and 2.5 mM Probenecid (Sigma P8761).
GPCR assays were performed using Ca^2+ optimized hematopoietic cell lines (rat) with cultures never exceeding 90% confluency. Cells were harvested and seeded (from cultures at less than 90% confluency) at 50000 cells/well for a 96-well plate (12500 cells/well for 384). After seeding, the assay plates were incubated for forty-five (45) minutes at room temperature. After room temperature incubation, the assay plates were incubated at 37° C. 5% CO2 for 24 hours prior to assaying.
All GPCR assays were performed using Fluo-8 Ca^2+ dye. Ca^2+ dye was prepared at 1× dye concentration in GPCR assay buffer. After 24 hours of incubation, cells were washed with GPCR assay buffer, and then Ca^2+-dye (100 μL/well) was added.
The plates were incubated for 90 minutes at 30° C. 5% CO2 prior to FLIPR assay.
Compound plates were prepared to add 50 μL/well during the agonist assay mode. During the FLIPR assay, 50 μL/well from the compound plate was diluted 3-fold into the existing 100 μL/well from the dye loading step. Therefore all compounds were prepared as 3× the final concentration desired in the assay.
After completion of the first single addition assay run, assay plate was removed from the FLIPR Tetra and placed at 25° C. for seven (7) minutes before antagonist assay.
Using the EC80 values determined during the agonist assay, all pre-incubated sample compound and reference antagonist (if applicable) wells were stimulated at the EC80 of the reference agonist. As reference ligands for the first three assays their obvious natural ligands motilin, prostaglandin F2α, and serotonin (5-HT, 5-Hydroxytryptamine) were used; and for the P2Y1 assay 2MeSATP (2-methyl-thio-adeno-sine 5′-triphosphate, i.e. (2R,3S,4R)-5-(6-amino-2-methylsulfanyl-purin-9-yl)-3,4-dihydroxy-tetrahydrofuran-2-yl]methyl (hydroxy-phosphonooxy-phosphoryl)hydrogen phosphate) was applied.
After the addition of the reference agonist fluorescence was monitored for 180 sec using FLIPR Tetra.
Data Analysis and Results:
From the FLIPR data, with negative control correction enabled, the maximum statistic for each well was exported and percentage activation relative to Emax control was calculated.

Series [5] has as its system Wnt/Beta-Catenin pathway (LEF-TCF-bla SW480 cells). The experiment in a line: Wnt/Beta-Catenin (APC-/-) LEF-TCF-bla SW480 inhibitor screen, constitutively activated. The note with it: for IC50: read-out: TCF/LEF receptor gene activity IC50; for inhibition at 10 µM: read-out: TCF/LEF receptor gene activity [% inhibition at 10 μM]. The format is cell-based. Here is the method: (§1) 3. Assays for the Wnt-Pathway
(§2) For determining the activity of the test compounds on the Wnt-pathway each substances war subjected to two distinct assays: The first (Wnt/Beta-Catenin) assay screened for inhibitors of the Wnt-pathway while the second (MAPK/MEK/B-raf) was conducted in order to confirm that the test compounds modulate the β-catenin-dependent, canonical Wnt pathway and are not acting via a possibly competing β-catenin-independent, noncanonical Wnt messaging system.
(§3) Both assays were performed and analyzed with a Tecan Safire^2 fluorescence plate reader.
Wnt/Beta-Catenin (APC−/−)—LEF-TCF-bla SW480—Inhibitor Screen, Constitutively Activated
(§4) LEF-TCF-bla SW480 cells are thawed and resuspended in Assay Media (OPTI-MEM, 0.5% dialyzed FBS, 0.1 mM NEAA, 1 mM Sodium Pyruvate, 100 U/mL/100 μg/mL Pen/Strep) to a concentration of 312,500 cells/mL. 4 μL of a 10× serial dilution of ICG-001 (control inhibitor starting concentration, 10,000 nM) or compounds are added to appropriate wells of a TC-Treated assay plate. 32 μL of cell suspension (10,000 cells) is added to the wells. 4 μL of Assay Media is added to all wells to bring the final assay volume to 40 μL. The plate is incubated for 16-24 hours at 37° C./5% CO2 in a humidified incubator. 8 μL of 1 μM Substrate Loading Solution is added to each well and the plate is incubated for 2 hours at room temperature.

Series [6] deals with MAPK/MEK/B-raf pathway (AP1-bla A375 cells). The experiment in a line: MAPK/MEK/B-raf AP1-bla A375 inhibitor screen, constitutively activated (negative control of the Wnt assay). The format is cell-based. Here is the method:
as §1, §2, §3
MAPK/MEK/B-raf—APl-bla A375—Inhibitor Screen, Constitutively Activated
as §4, with “AP1-bla A375” for “LEF-TCF-bla SW480”, “Raf1 Kinase Inhibitor” for “ICG-001”

Setting [7] is: Homo sapiens, A-375, read-out: AP receptor gene activity IC50.

Read-outs that look alike come from different tables or passages of the source.
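For Plasma Stability 240 min mouse [% remain.] in this document: sodium citrate stabilized mouse plasma, parent compound quantified by HPLC/MS/MS relative to its peak area at time zero, run in triplicate.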
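For Plasma Stability T½ [min] mouse in this document: sodium citrate stabilized mouse plasma, parent compound quantified by HPLC/MS/MS relative to its peak area at time zero, run in triplicate.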

T2 sequence (P47900 whole entry): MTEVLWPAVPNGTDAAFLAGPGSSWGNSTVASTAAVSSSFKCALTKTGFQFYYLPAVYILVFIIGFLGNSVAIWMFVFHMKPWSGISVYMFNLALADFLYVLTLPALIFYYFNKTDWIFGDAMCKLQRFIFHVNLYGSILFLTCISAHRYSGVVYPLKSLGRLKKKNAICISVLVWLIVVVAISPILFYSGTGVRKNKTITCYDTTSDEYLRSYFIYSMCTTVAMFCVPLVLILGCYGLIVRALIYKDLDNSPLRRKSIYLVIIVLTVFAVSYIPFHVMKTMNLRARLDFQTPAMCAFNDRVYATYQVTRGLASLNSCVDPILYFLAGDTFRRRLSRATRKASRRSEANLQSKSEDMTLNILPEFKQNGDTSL
T1 sequence (P22001 whole entry): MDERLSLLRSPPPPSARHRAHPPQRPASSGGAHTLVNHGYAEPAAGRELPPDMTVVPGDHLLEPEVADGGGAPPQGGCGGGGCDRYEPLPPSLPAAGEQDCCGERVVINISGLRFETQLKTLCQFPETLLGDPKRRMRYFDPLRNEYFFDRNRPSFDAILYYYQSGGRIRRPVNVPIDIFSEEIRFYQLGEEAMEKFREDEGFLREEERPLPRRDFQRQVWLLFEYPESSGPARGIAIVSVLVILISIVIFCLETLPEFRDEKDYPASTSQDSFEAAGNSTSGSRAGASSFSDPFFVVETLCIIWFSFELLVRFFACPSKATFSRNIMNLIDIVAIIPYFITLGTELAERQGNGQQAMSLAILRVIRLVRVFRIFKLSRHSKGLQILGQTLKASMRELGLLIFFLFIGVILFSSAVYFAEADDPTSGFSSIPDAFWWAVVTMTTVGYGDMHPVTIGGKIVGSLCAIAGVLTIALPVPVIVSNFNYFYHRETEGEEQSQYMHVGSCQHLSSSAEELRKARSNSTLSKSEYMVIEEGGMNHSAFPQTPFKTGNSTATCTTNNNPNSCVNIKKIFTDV

As to `CCCCC(=O)N[C@H]1C[C@H]2COc3cccc(c3)C(=O)N(C)CC[C@H](NC(=O)CCc3ccncc3)C(=O)N2C1` [Ex. 170], the “KV1,3 antagonist activity [% Inhibition at 10 μM]” value at human Kv1.3 is recorded as 10%. Moreover, the Plasma Stability T½ [min] hum in the series “in vitro [1]” was over 240 min. Moreover, in the series “in vitro [1]” (4 h), the “Plasma Stability 240 min hum [% remain.]” value is 92 % remain. The compound further came in with a Plasma Stability T½ [min] mouse in “in vitro [2]” of over 240 min. Moreover, the “Plasma Stability 240 min mouse [% remain.]” value in “in vitro [2]” (4 h) came out at 100 % remain. Besides, the Metabolic Stability T½ [min] hum in series [3] is over 60 min. For the same compound, in series [3] (1 h), the “Metabolic Stability 60 min hum [% remain.]” value stood at 60 % remain. The Metabolic Stability T½ [min] mouse in series [4] is over 60 min. The “Metabolic Stability 60 min mouse [% remain.]” value in series [4] (1 h) stood at 86 % remain.

Turning to `CN1CC(=O)N2C[C@H](NC(=O)OC(C)(C)C)C[C@H]2CSc2cccc(c2)C(=O)N(C)[C@H](C(=O)NCc2ccc3ccccc3c2)CCC1=O` [Ex. 316, tert-butyl N-[(4S,6R,15S)-11,16-dimethyl-15-{[(2-naphthylmethyl)amino]carbonyl}-9,12,17-trioxo-2-thia-8,11,16-triazatricyclo[16.3.1.0^4,8]docosa-1(22),18,20-trien-6-yl]carbamate], the inhibition at 10 µM at Purinoreceptor P2Y1 came to 57%.

`CC(=O)N[C@@H]1C[C@H]2CSc3cccc(c3)C(=O)N(C)[C@H](C(=O)NCc3ccc4ccccc4c3)CCC(=O)N(C)CC(=O)N2C1` [Ex. 320, (4S,6R,15S)-6-(acetylamino)-11,16-dimethyl-N-(2-naphthylmethyl)-9,12,17-trioxo-2-thia-8,11,16-triazatricyclo[16.3.1.0^4,8]docosa-1(22),18,20-triene-15-carboxamide] yielded an inhibition at 10 µM on Purinoreceptor P2Y1 of 19%.

With `CN1CC(=O)N2C[C@H](NC(=O)CCc3ccncc3)C[C@H]2CSc2cccc(c2)C(=O)N(C)[C@H](C(=O)NCc2ccc3ccccc3c2)CCC1=O` [Ex. 321, (4S,6R,15S)-11,16-dimethyl-N-(2-naphthylmethyl)-9,12,17-trioxo-6-{[3-(4-pyridinyl)propanoyl]amino}-2-thia-8,11,16-triazatricyclo[16.3.1.0^4,8]docosa-1(22),18,20-triene-15-carboxamide], at Purinoreceptor P2Y1, the IC50 was 7.5 µM and the inhibition at 10 µM came to 45%.

`CCCCC(=O)N[C@@H]1C[C@H]2CSc3cccc(c3)C(=O)N(C)[C@H](C(=O)NCc3ccc4ccccc4c3)CCC(=O)N(C)CC(=O)N2C1` [Ex. 322, (4S,6R,15S)-11,16-dimethyl-N-(2-naphthylmethyl)-9,12,17-trioxo-6-(pentanoylamino)-2-thia-8,11,16-triazatricyclo[16.3.1.0^4,8]docosa-1(22),18,20-triene-15-carboxamide] gave an inhibition at 10 µM at Purinoreceptor P2Y1 of 60%.

For the compound `CN1CC(=O)N2C[C@@H](NC(=O)Cc3ccc4ccccc4c3)C[C@H]2COc2ccc(F)cc2C(=O)N(C)[C@H](C(=O)NCc2cccc3ccccc23)CCC1=O` [Ex. 501, (2S,11S,19aS)-15-fluoro-7,12-dimethyl-2-{[2-(2-naphthyl)acetyl]amino}-N-(1-naphthylmethyl)-5,8,13-trioxo-2,3,6,7,8,9, 10,11,12,13,19,19a-dodecahydro-1H,5H-pyrrolo[2,1-c] [1,4,7,12]benzoxatriazacyclo-pentadecine-11-carboxamide], the “TCF/LEF receptor gene activity [% inhibition at 10 μM]” value in series [5] (10 μM) was found to be 100%. Also, the IC50 was 1.1 µM in series [5] and over 50 µM in series [6] (read-out: AP receptor gene activity IC50).

Regarding `CN1CC(=O)N2C[C@@H](NC(=O)c3cccc(Cl)c3)C[C@H]2COc2ccc(F)cc2C(=O)N(C)[C@H](C(=O)NCc2cccc3ccccc23)CCC1=O` [Ex. 502, (2S,11S,19aS)-2-[(3-chlorobenzoyl)amino]-15-fluoro-7,12-dimethyl-N-(1-naphthylmethyl)-5,8,13-trioxo-2,3,6,7,8,9,10,11,12,13,19,19a-dodecahydro-1H,5H-pyrrolo[2,1-c] [1,4,7,12] benzoxatriazacyclopentadecine-11-carboxamide], the IC50 in series [5] (Homo sapiens, SW480) was 5.5 µM; in series [6] (setting [7]), over 50 µM. Further, in series [5] (Homo sapiens, SW480), the inhibition at 10 µM is 82%.

Regarding `CN1CC(=O)N2C[C@@H](NC(=O)c3cccc4ccccc34)C[C@H]2COc2ccc(F)cc2C(=O)N(C)[C@H](C(=O)NCc2ccc3ccccc3c2)CCC1=O` [Ex. 503, (2S,11S,19aS)-15-fluoro-7,12-dimethyl-2-(1-naphthoylamino)-N-(2-naphthylmethyl)-5,8,13-trioxo-2,3,6,7,8,9,10,11,12,13,19,19a-dodecahydro-1H,5H-pyrrolo[2,1-c] [1,4,7,12]benzoxatriazacyclopentadecine-11-carboxamide], in series [5] (Homo sapiens, SW480), the IC50 stood at 5.8 µM and the inhibition at 10 µM is 68%. Moreover, in series [6] (setting [7]), the IC50 is over 50 µM.

The values are drawn from patent US9512139B2, “Conformationally constrained, fully synthetic macrocyclic compounds” (POLYPHOR AG, priority 2009, dated 2016).
